The source of these data is ChEMBL document CHEMBL4308867, “Discovery of naldemedine: A potent and orally available opioid receptor antagonist for treatment of opioid-induced adverse effects” (Bioorg Med Chem Lett, 2019).

The target of data set [1] is T1, Mu-type opioid receptor (Homo sapiens, UniProt P35372). Briefly: Antagonist activity at mu-opioid receptor (unknown origin) by [35S]-GTPgammaS binding assay. It is filed as functional.
The target in data set [2] is T2, Delta-type opioid receptor (Homo sapiens, UniProt P41143). Description: Antagonist activity at delta-opioid receptor (unknown origin) by [35S]-GTPgammaS binding assay. Format: functional. For orientation: Binding of GTPγS marks nucleotide exchange on a G protein.
The test system of data set [3] is Mustela putorius furo. Briefly: In vivo antagonist activity at mu-opioid receptor in sc dosed ferret assessed as inhibition of morphine-induced emesis/vomiting. It is filed as functional.
Data set [4] deals with Rattus norvegicus. Description: In vivo antagonist activity at […] in sc dosed rat assessed as inhibition of morphine-induced constipation. It is filed as functional.
The target of data set [5] is T1, Mu-type opioid receptor. Description: Displacement of [3H]-DAMGO from recombinant human mu-opioid receptor expressed in CHOK1 cells. It is filed as cell-based. (In general: Displacement assays read how much labelled ligand stays bound in the presence of the test substance.)
In data set [6] the target is T2, Delta-type opioid receptor. Description: Displacement of [3H]-DADLE from recombinant human delta-opioid receptor expressed in HEK293 cells. Format: cell-based.
The nature of data set [7]: Stability in human microsomes assessed as parent compound remaining at 0.5 uM measured after 0.5 hrs. It is filed as ADME, Microsome. The settings on record: read-out: Stability.
A short description of data set [8]: Stability in rat microsomes assessed as parent compound remaining at 0.5 uM measured after 0.5 hrs. Format: ADME, Microsome. Particulars: read-out: Stability.
Data set [9] in a line: Total clearance in rat at 1 mg/kg, po administered as cassette dose. The settings on record: in vivo. Format: ADME, organism-based.
The nature of data set [10]: Oral bioavailability in rat at 1 mg/kg administered as cassette dose. Format: ADME, organism-based. Particulars: in vivo.
Data set [11] can be described thus: Brain to blood partition coefficient, Kp of the compound in rat at 1 mg/kg, po administered as cassette dose. It is filed as ADME, organism-based.
A short description of data set [12]: Cmax in rat brain at 1 mg/kg, po administered as cassette dose. It is filed as ADME, organism-based. On the set-up: dose 1 mg/kg, route oral.
Data set [13] in a line: Drug metabolism assessed as formation of 14-O-acyl form and 7-acyl form mixture.
A short description of data set [14]: Stability in plasma (unknown origin) assessed as parent compound remaining after 24 hrs. Particulars: read-out: Stability. Format: ADME, cell-free.
Data set [15] is described as follows: Chemical stability of the compound. Format: physicochemical.
The subject of data set [16] is Mustela putorius furo. Briefly: In vivo antagonist activity at mu-opioid receptor in po dosed ferret assessed as inhibition of morphine-induced emesis/vomiting. It is filed as functional.
For data set [17], the species on record is Rattus norvegicus. Briefly: […]. Format: functional. Particulars: po.
In data set [18] the test system is Rattus norvegicus. Description: Antianalgesic activity in po dosed rat assessed as inhibition of morphine-induced analgesia by tail-flick test. Format: functional. (In general: In hot-plate and tail-flick tests a longer latency is read as antinociception.)
Data set [19] can be described thus: Selectivity ratio of ED50 for inhibition of morphine-induced analgesia in po dosed rat to ED50 for inhibition of morphine-induced emesis/vomiting in po dosed ferret. Format: functional.
Data set [20] deals with Rattus norvegicus. Description: Selectivity ratio of ED50 for inhibition of morphine-induced analgesia in po dosed rat to ED50 for inhibition of morphine-induced constipation in po dosed rat. It is filed as functional.

T1 sequence (P35372 whole entry): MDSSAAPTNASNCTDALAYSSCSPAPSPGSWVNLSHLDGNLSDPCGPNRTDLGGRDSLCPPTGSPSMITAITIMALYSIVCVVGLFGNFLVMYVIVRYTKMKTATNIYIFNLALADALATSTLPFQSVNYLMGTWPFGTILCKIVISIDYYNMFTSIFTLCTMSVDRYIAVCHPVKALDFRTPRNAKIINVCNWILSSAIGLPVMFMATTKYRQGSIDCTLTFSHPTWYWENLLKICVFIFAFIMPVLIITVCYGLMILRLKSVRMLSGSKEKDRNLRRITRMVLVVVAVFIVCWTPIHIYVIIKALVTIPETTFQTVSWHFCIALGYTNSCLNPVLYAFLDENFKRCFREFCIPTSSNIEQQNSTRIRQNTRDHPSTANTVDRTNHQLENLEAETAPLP
T2 sequence (P41143 whole entry): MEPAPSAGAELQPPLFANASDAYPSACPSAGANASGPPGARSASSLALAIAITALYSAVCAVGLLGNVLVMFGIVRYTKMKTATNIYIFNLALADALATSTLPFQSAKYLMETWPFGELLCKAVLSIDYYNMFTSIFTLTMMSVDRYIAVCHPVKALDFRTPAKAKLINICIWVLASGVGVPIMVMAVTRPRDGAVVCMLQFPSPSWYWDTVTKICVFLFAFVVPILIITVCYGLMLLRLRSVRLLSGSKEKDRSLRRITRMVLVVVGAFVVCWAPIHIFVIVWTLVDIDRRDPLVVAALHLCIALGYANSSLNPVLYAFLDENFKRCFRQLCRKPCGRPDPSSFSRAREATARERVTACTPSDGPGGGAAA

What is called ED50 is the midpoint of the dose-response relation. For `C[N@+]1(CC2CC2)CC[C@]23c4c5ccc(O)c4O[C@H]2C(=O)CC[C@@]3(O)[C@H]1C5.[Br-]` [METHYLNALTREXONE BROMIDE], the Ke came out at 56 nM at Mu-type opioid receptor [1] and 1080 nM in data set [2]. Also, the ED50 amounted to 0.69 mg/kg in the data set on Mustela putorius furo [3] and 4.5 mg/kg in the data set with Rattus norvegicus [4].

What is called Ki is the equilibrium dissociation constant of an inhibitor or competing ligand from its target. The CL/F is the apparent clearance, not corrected for the fraction that reaches the circulation. In general, bioavailability refers to dose-corrected exposure relative to a reference, in per cent. A high value points to good availability. For orientation: Kp means the ratio of the level in a tissue or fluid to that in plasma or blood. Usually Cmax stands for the highest concentration seen after dosing. In the case of `CC(=O)C1=C(O)[C@@H]2Oc3c(O)ccc4c3[C@@]23CCN(CC2CC2)[C@H](C4)[C@]3(O)C1`, the Ki turned out to be 0.95 nM at Mu-type opioid receptor [5] and 31 nM in data set [6]. For the same compound, the remaining at 0.5 h, 0.5 µM in [7] is 95%; in data set [8], 80%. For the same compound, in [9], the CL/F was determined as 233 mL/min/kg. This compound came in with a bioavailability in data set [10] of 4%. The partition ratio (Kp) in data set [11] was 1.1. Further, the Cmax in [12] is 5.8 ng/mL. For the same compound, the Drug metabolism result in data set [13] is given as “Metabolite detected”. Besides, in [14], the remaining at 24 h was under 20%.

Regarding `CCC(=O)C1=C(O)[C@@H]2Oc3c(O)ccc4c3[C@@]23CCN(CC2CC2)[C@H](C4)[C@]3(O)C1`, the results for the inhibition constant (Ki) (on Mu-type opioid receptor [5]; in data set [6]) were 1.4 nM and 9.9 nM, respectively. Further, the remaining at 0.5 h, 0.5 µM was 85% in data set [7] and 46% in [8]. In data set [9], this compound registered an apparent clearance (CL/F) of 313 mL/min/kg. Further, the bioavailability in data set [10] amounted to 6.4%. Besides, in data set [11], the Kp worked out at 1.7. Further, the highest level in [12] (Cmax) was 6.5 ng/mL. The Drug metabolism entry in [13] was “Metabolite detected”. Besides, in data set [14], the remaining at 24 h is under 20%.

With `CC(C)(NC(=O)C1=C(O)[C@@H]2Oc3c(O)ccc4c3[C@@]23CCN(CC2CC2)[C@H](C4)[C@]3(O)C1)c1nc(-c2ccccc2)no1` [NALDEMEDINE], the Ki was 1.1 to 1.13 nM at Mu-type opioid receptor [5] and 0.91 nM in data set [6]. The values for the remaining at 0.5 h, 0.5 µM in data set [7] and in data set [8] were 73% and 76%, respectively. For the same compound, the CL/F in [9] stood at 20 mL/min/kg. This compound also had a bioavailability in data set [10] of 29%. The Kp in data set [11] came to 0.03. The same compound came in with a Cmax in [12] of 1.3 ng/mL. In addition, the Stability result in data set [15] is “Stable”. For the same compound, in [14], the remaining at 24 h is over 80%. For the same compound, the Ke at Mu-type opioid receptor [1] was 0.05 nM; in [2] it was 0.37 nM. Also, the ED50 with Mustela putorius furo [16] was 0.03 mg/kg; in the data set listed under Rattus norvegicus [17], 0.03 mg/kg; with Rattus norvegicus [18], over 30 mg/kg. The “Ratio ED50” value was over 1000 in data set [19] and over 500 in the data set with Rattus norvegicus [20].
